Patent US12138250B2, “Formulations of 6-(2-hydroxy-2-methylpropoxy)-4-(6-(6-((6-methoxypyridin-3-yl)methyl)-3,6-diazabicyclo[3.1.1]heptan-3-yl)pyridin-3-yl)pyrazolo[1,5-a]pyridine-3-carbonitrile” (Loxo Oncology, Inc., priority 2017, dated 2024)
Where two headings read alike, the source gives them in different places.

Experiments:
[1] = Gravimetric Vapor Sorption (GVS); type: physicochemical
Experimental: Approximately 10-20 mg of sample was placed into a mesh vapor sorption balance pan and loaded into an IGASorp Moisture Sorption Analyzer balance by Hiden Analytical. The sample was subjected to a ramping profile from 40-90% RH at 10% increments, maintaining the sample at each step until a stable weight had been achieved (98% step completion). After completion of the sorption cycle, the sample was dried using the same procedure to 0% RH, and finally taken back to the starting point of 40% RH. The weight change during the sorption/desorption cycles were plotted, allowing for the hygroscopic nature of the sample to be determined.

[2] = salt screen, succinic acid
[3] = Solvent solubility screen in 32 solvent systems; type: physicochemical; details: for solubility: 40 °C, thermodynamic from solid, read-out: Approximate solubility
Experimental: A solvent solubility screen was conducted in 32 solvent systems as follows. […] Between each addition, the mixture was checked for dissolution. If no dissolution was apparent, the mixture was heated to around 40° C. and checked again. This procedure was continued until dissolution was observed or until 100 volumes of solvent had been added. Undissolved material from the solubility screen was isolated and analyzed by XRPD.

[4] = Dynamic Vapor Sorption (DVS); type: physicochemical
Experimental: Approximately 10 mg of sample was placed into a mesh vapor sorption balance pan and loaded into a DVS-1 dynamic vapor sorption balance by Surface Measurement Systems. The sample was subjected to a ramping profile from 40-90% relative humidity (RH) at 10% increments, maintaining the sample at each step until a stable weight had been achieved (99.5% step completion). After completion of the sorption cycle, the sample was dried using the same procedure to 0% RH and then a second sorption cycle back to 40% RH. The weight change during the sorption/desorption cycles were plotted, allowing for the hygroscopic nature of the sample to be determined. XRPD analysis was then carried out on any solid retained.

[5] = Overnight storage at 40° C. and 75% RH with XRPD reanalysis (salt screen, temperature cycling polymorph screen); type: physicochemical; details: for Post-temperature cycling (XRPD form): analyzed wet; for Post-stability tests (XRPD form): stored at 40° C. and 75% RH overnight
Experimental: Each mixture was filtered and isolated solids were analyzed (wet) by XRPD to determine crystallinity and form. Samples in which solid was not observed were stored uncapped to allow solvent evaporation. […] The samples were then reanalyzed by XRPD to determine any changes in form or crystallinity. The observations and results, including the different diffractogram patterns observed during the screen, are shown in Tables 8-32, below, and FIGS. 6A-6B through 29A-29B. After temperature cycling, each mixture was filtered and isolated solids were analyzed (wet) by XRPD to determine crystallinity and form. The samples were then stored at 40° C. and 75% RH overnight and reanalyzed by XRPD to determine any changes in form or crystallinity. Results are shown in Table 39, below, and FIGS. 40A-40D.

With `COc1ccc(CN2C3CC2CN(c2ccc(-c4cc(OCC(C)(C)O)cn5ncc(C#N)c45)cn2)C3)cn1` [Form 1] as the compound, how does the “form or crystallinity by XRPD post-GVS analysis” value [1] read?
Its value is “No change in form”.

And the “hygroscopicity by GVS” value [1]?
The value was “moderately hygroscopic”.

And the “weight increase by GVS” value ([1]; at 90% RH)?
Its value is 2.6%.

With `O=C(O)CCC(=O)O` [Succinic acid] as the compound, how does the XRPD post-cycling ([2]; IPA/water (10%)) read?
The XRPD post-cycling was “Form 8”.

And the XRPD post-cycling ([2]; MeCN/water (20%))?
The XRPD post-cycling was “Form 8”.

What about the XRPD post-stability ([2]; MeCN/water (20%), overnight 40° C. and 75% RH) of the same compound?
Its XRPD post-stability is “Form 8”.

Which solubility ([3]; aqueous with cosolvent or surfactant or cyclodextrin, solvent Acetone:Water (50%)) does the source give for `COc1ccc(CN2C3CC2CN(c2ccc(-c4cc(OCC(C)(C)O)cn5ncc(C#N)c45)cn2)C3)cn1` [compound of Formula (I), 6-(2-hydroxy-2-methylpropoxy)-4-(6-(6-((6-methoxypyridin-3-yl)methyl)-3,6-diazabicyclo[3.1.1]heptan-3-yl)pyridin-3-yl)pyrazolo[1,5-a]pyridine-3-carbonitrile] here?
The solubility was under 5000 µg/mL.

What about the solubility ([3]; organic solvent or mixture, solvent 1,4-Dioxane, (P) = partial solubility at 100 volumes) of the same compound?
Its solubility is under 5000 µg/mL.

And the solubility ([3]; organic solvent or mixture, solvent 1-Butanol)?
Its solubility is under 5000 µg/mL.

What about the solubility ([3]; organic solvent or mixture, solvent 1-Propanol) of the same compound?
The solubility was under 5000 µg/mL.

And the solubility ([3]; organic solvent or mixture, solvent 2-Ethoxyethanol, (P) = partial solubility at 100 volumes)?
The solubility was under 5000 µg/mL.

And the solubility ([3]; organic solvent or mixture, solvent 2-Methyl THF, (P) = partial solubility at 100 volumes)?
The solubility was under 5000 µg/mL.

And the solubility ([3]; organic solvent or mixture, solvent Acetone)?
Its solubility is under 5000 µg/mL.

What about the solubility ([3]; organic solvent or mixture, solvent Anisole, (P) = partial solubility at 100 volumes) of the same compound?
The solubility was under 5000 µg/mL.

And the solubility ([3]; organic solvent or mixture, solvent CHCl3, (P) = partial solubility at 100 volumes)?
The solubility was under 5000 µg/mL.

And the solubility ([3]; organic solvent or mixture, solvent Cyclohexane)?
The solubility was under 5000 µg/mL.

What about the solubility ([3]; organic solvent or mixture, solvent Cyclohexanone, (P) = partial solubility at 100 volumes) of the same compound?
The solubility was under 5000 µg/mL.

And the solubility ([3]; organic solvent or mixture, solvent DCM, (P) = partial solubility at 100 volumes)?
Its solubility is under 5000 µg/mL.

What about the solubility ([3]; organic solvent or mixture, solvent EtOAc) of the same compound?
Its solubility is under 5000 µg/mL.

And the solubility ([3]; organic solvent or mixture, solvent Ethanol)?
Its solubility is under 5000 µg/mL.

What about the solubility ([3]; organic solvent or mixture, solvent IPA) of the same compound?
Its solubility is under 5000 µg/mL.

What about the solubility ([3]; organic solvent or mixture, solvent MEK) of the same compound?
The solubility was under 5000 µg/mL.

And the solubility ([3]; organic solvent or mixture, solvent MIBK)?
The solubility was under 5000 µg/mL.

And the solubility ([3]; organic solvent or mixture, solvent MeOAc)?
Its solubility is under 5000 µg/mL.

And the solubility ([3]; organic solvent or mixture, solvent Nitromethane, (P) = partial solubility at 100 volumes)?
Its solubility is under 5000 µg/mL.

What about the solubility ([3]; organic solvent or mixture, solvent THF, (P) = partial solubility at 100 volumes) of the same compound?
Its solubility is under 5000 µg/mL.

And the solubility ([3]; solvent Water)?
Its solubility is under 5000 µg/mL.

What about the “solubility in solvent solubility screen” value ([3]; DMSO, NMP, and THF/water (1%)) of the same compound?
The value was “moderate solubility”.

What about the “solubility in solvent solubility screen” value ([3]; majority of solvent systems investigated) of the same compound?
Its value is “low solubility”.

And the “change in form post-DVS” value ([4]; XRPD after DVS)?
Its value is “No change in Form”.

What about the “weight increase by DVS” value ([4]; at 90% RH, material prepared as in Example 1, identified as Form 1) of the same compound?
Its value is “around 3.6%”.

And the “hygroscopicity by DVS” value ([4]; material prepared as in Example 1, identified as Form 1)?
The value was “moderately hygroscopic”.

And the “Post-temperature cycling (XRPD form)” value ([5]; slurry in 1,4-Dioxane, 40° C./RT cycles 72 hours)?
The value was “Weak diffraction”.

What about the “Post-temperature cycling (XRPD form)” value ([5]; slurry in 1-Butanol, 40° C./RT cycles 72 hours) of the same compound?
The value was “Weak diffraction”.

What about the “Post-temperature cycling (XRPD form)” value ([5]; slurry in 1-Propanol, 40° C./RT cycles 72 hours) of the same compound?
The value was “Form 8”.

And the “Post-temperature cycling (XRPD form)” value ([5]; slurry in 2-Ethoxyethanol, 40° C./RT cycles 72 hours)?
Its value is “Weak diffraction”.

What about the “Post-temperature cycling (XRPD form)” value ([5]; slurry in 2-Methyl THF, 40° C./RT cycles 72 hours) of the same compound?
The value was “Weak diffraction”.

What about the “Post-temperature cycling (XRPD form)” value ([5]; slurry in Acetone, 40° C./RT cycles 72 hours) of the same compound?
The value was “Weak diffraction”.

What about the “Post-temperature cycling (XRPD form)” value ([5]; slurry in Acetone:Water (50%), 40° C./RT cycles 72 hours) of the same compound?
Its value is “Form 1”.

What about the “Post-temperature cycling (XRPD form)” value ([5]; slurry in Anisole, 40° C./RT cycles 72 hours) of the same compound?
Its value is “Form 1”.

What about the “Post-temperature cycling (XRPD form)” value ([5]; slurry in CHCl3, 40° C./RT cycles 72 hours) of the same compound?
Its value is “Amorphous”.

What about the “Post-temperature cycling (XRPD form)” value ([5]; slurry in Cyclohexane, 40° C./RT cycles 72 hours) of the same compound?
Its value is “Form 1”.

What about the “Post-temperature cycling (XRPD form)” value ([5]; slurry in Cyclohexanone, 40° C./RT cycles 72 hours) of the same compound?
The value was “Weak diffraction”.

What about the “Post-temperature cycling (XRPD form)” value ([5]; slurry in DCM, 40° C./RT cycles 72 hours) of the same compound?
The value was “Amorphous”.

What about the “Post-temperature cycling (XRPD form)” value ([5]; slurry in DMSO, 40° C./RT cycles 72 hours) of the same compound?
Its value is “Form 1”.

What about the “Post-temperature cycling (XRPD form)” value ([5]; slurry in EtOAc, 40° C./RT cycles 72 hours) of the same compound?
The value was “Form 1”.

What about the “Post-temperature cycling (XRPD form)” value ([5]; slurry in Ethanol, 40° C./RT cycles 72 hours) of the same compound?
The value was “Weak diffraction”.

And the “Post-temperature cycling (XRPD form)” value ([5]; slurry in IPA, 40° C./RT cycles 72 hours)?
Its value is “Form 8”.

And the “Post-temperature cycling (XRPD form)” value ([5]; slurry in MEK, 40° C./RT cycles 72 hours)?
Its value is “Weak diffraction”.

What about the “Post-temperature cycling (XRPD form)” value ([5]; slurry in MIBK, 40° C./RT cycles 72 hours) of the same compound?
Its value is “Form 1”.

What about the “Post-temperature cycling (XRPD form)” value ([5]; slurry in MeCN:Water (20%), 40° C./RT cycles 72 hours) of the same compound?
The value was “Weak diffraction”.

What about the “Post-temperature cycling (XRPD form)” value ([5]; slurry in MeOAc, 40° C./RT cycles 72 hours) of the same compound?
The value was “Weak diffraction”.

And the “Post-temperature cycling (XRPD form)” value ([5]; slurry in Nitromethane, 40° C./RT cycles 72 hours)?
The value was “Weak diffraction”.

What about the “Post-temperature cycling (XRPD form)” value ([5]; slurry in THF, 40° C./RT cycles 72 hours) of the same compound?
Its value is “Weak diffraction”.

What about the “Post-temperature cycling (XRPD form)” value ([5]; slurry in THF:Water (1%), 40° C./RT cycles 72 hours) of the same compound?
Its value is “Weak diffraction”.

And the “Post-temperature cycling (XRPD form)” value ([5]; slurry in Water, 40° C./RT cycles 72 hours)?
Its value is “Form 1”.

And the “Post-stability tests (XRPD form)” value ([5]; solid from 1,4-Dioxane)?
Its value is “Form 1”.

What about the “Post-stability tests (XRPD form)” value ([5]; solid from 1-Butanol) of the same compound?
Its value is “Form 1”.

What about the “Post-stability tests (XRPD form)” value ([5]; solid from 1-Propanol) of the same compound?
The value was “Form 1”.

What about the “Post-stability tests (XRPD form)” value ([5]; solid from 2-Ethoxyethanol) of the same compound?
Its value is “Form 1”.

And the “Post-stability tests (XRPD form)” value ([5]; solid from 2-Methyl THF)?
Its value is “Form 1”.

And the “Post-stability tests (XRPD form)” value ([5]; solid from Acetone:Water (50%))?
Its value is “Form 1”.

What about the “Post-stability tests (XRPD form)” value ([5]; solid from Acetone) of the same compound?
The value was “Form 1”.

And the “Post-stability tests (XRPD form)” value ([5]; solid from Anisole)?
Its value is “Form 1”.

What about the “Post-stability tests (XRPD form)” value ([5]; solid from CHCl3) of the same compound?
The value was “Form 1”.

What about the “Post-stability tests (XRPD form)” value ([5]; solid from Cyclohexane) of the same compound?
Its value is “Form 1”.

And the “Post-stability tests (XRPD form)” value ([5]; solid from Cyclohexanone)?
The value was “Form 1”.

What about the “Post-stability tests (XRPD form)” value ([5]; solid from DCM) of the same compound?
Its value is “Form 1”.

What about the “Post-stability tests (XRPD form)” value ([5]; solid from DMSO) of the same compound?
Its value is “Form 1”.

What about the “Post-stability tests (XRPD form)” value ([5]; solid from EtOAc) of the same compound?
Its value is “Form 1”.

What about the “Post-stability tests (XRPD form)” value ([5]; solid from Ethanol) of the same compound?
Its value is “Form 1”.

And the “Post-stability tests (XRPD form)” value ([5]; solid from IPA)?
Its value is “Form 1”.

And the “Post-stability tests (XRPD form)” value ([5]; solid from MEK)?
Its value is “Form 1”.

What about the “Post-stability tests (XRPD form)” value ([5]; solid from MIBK) of the same compound?
Its value is “Form 1”.

And the “Post-stability tests (XRPD form)” value ([5]; solid from MeCN:Water (20%))?
Its value is “Form 1”.

What about the “Post-stability tests (XRPD form)” value ([5]; solid from MeOAc) of the same compound?
Its value is “Form 1”.

And the “Post-stability tests (XRPD form)” value ([5]; solid from Nitromethane)?
Its value is “Form 1”.

What about the “Post-stability tests (XRPD form)” value ([5]; solid from THF) of the same compound?
The value was “Form 1”.

And the “Post-stability tests (XRPD form)” value ([5]; solid from Water)?
Its value is “Form 1”.
